Holding throughout (format): in vivo
The test system of assay [1] is Pseudomonas syringae PstDC3000. Description: Induction of Arabidopsis thaliana against infection by Pseudomonas syringae. To be noted: for Disease index reduced by / Number of the bacteria in each milligram of the leaves reduced by: compared with blank control; for CFU (mg), number of bacteria in each milligram of the leaves / Disease index: 3 d after inoculation. The method, then: 2-amino-3-indolyl butyric acid was dissolved in sterile water and gradiently diluted with sterile water to obtain solutions of 100 nm, 1,000 nm and 10,000 nm. A blank control was additionally set. Meanwhile, 0.02% Tween 20 was added as a surfactant. Pseudomonas syringae PstDC3000 was coated on an LB plate and cultured at 28° C. for 48 h; monoclonal colonies were selected, inoculated into a 50-mL centrifuge tube containing 2 mL of a culture medium, and cultured on a shaking table at 28° C. and 250 rpm, the change of an OD600 value of the bacterial liquid was monitored every 1-2 h, and the culture of the bacteria was stopped before the OD600 value reached 0.8; 1 mL of the bacterial liquid was transferred to a sterile 1.5-mL centrifuge tube for centrifuging at 8,000 rpm for 2 min and the precipitate was collected; the supernatant was removed, the precipitate was washed 3 times with 10 mM of magnesium chloride and centrifuged, and finally the PstDC3000 was resuspended in 10 mM of magnesium chloride enable the OD600 value to reach […] for late use. Arabidopsis thaliana seeds were soaked in 75% alcohol for 3 min, washed with sterile water for 4 times and seeded in a culture dish containing ½ MS culture medium with 12 seeds sown on each culture dish. The ½ MS culture dish carrying the seeds were vernalized at 4° C. for 3 d to break dormancy and then placed in a culture room at 22° C. and the illumination intensity of 100 μEm^−2s^−1 (16 h light/8 h dark). When the seedlings grew for 2 weeks, 2-amino-3-indolyl butyric acid at different concentrations were slowly poured into the culture dish until the whole Arabidopsis thaliana seedlings were submerged for 2-3 min, then the treatment solution was completely poured from the culture dish, and the treatment was performed once every other 24 h for a total of 2 times. The PstDC3000 suspension (OD600=0.01) was inoculated to the Arabidopsis thaliana leaves by using the same submerging method 24 h after the 2nd treatment, and then the culture dish was sealed by a medical breathable adhesive plaster after the inoculation and placed in the culture room for continuous culture. After 3 d, the number of the bacteria subjected to different treatments was determined, the disease condition of the Arabidopsis thaliana was observed, and the disease indexes were calculated by using the same calculation formula as that in example 2.
Grading standard of diseases caused by PstDC3000 (taking leaves as units): • grade 0: the leaf surfaces were free of disease spots; • grade 1: the area of the disease spots accounted for 0%-10% of that of the whole leaves; • grade 2: the area of the disease spots accounted for 10%-25% of that of the whole leaves; • grade 3: the area of the disease spots accounted for 25%-50% of that of the whole leaves; • grade 4: the area of the disease spots accounted for 50%-75% of that of the whole leaves; and • grade 5: the area of the disease spots accounted for 75%-100% of that of the whole leaves.

In another assay the test system is ryegrass. Description: Ryegrass under high temperature stress. Details: Heat damage index: scale not given here. The conditions noted are these: for Heat damage index: 45° C. 12 h, recovery 7 d; for Heat damage index of the ryegrass decreased: vs control group. The protocol: 2-amino-3-indolyl butyric acid was dissolved in distilled water and gradiently diluted with distilled water to obtain solutions of 1 nm, 10 nm, 100 nm and 1,000 nm. A blank control was additionally set. Meanwhile, 0.02% Tween 20 was added as a surfactant. Each concentration was set to 4 replicates while a room temperature blank control was set. Ryegrass seeds were weighed at 0.8 g per pot, sown in a pot with the diameter of 8.5 cm and planted in a greenhouse at 25° C. with the humidity of 60%-70% and the light intensity of 200 μmolm^−2s^−1 (12 h light/12 h dark). After 7 d of growth, the ryegrass was treated by spraying the 2-amino-3-indolyl butyric acid solution on the leaf surfaces twice for 24 h. 24 h after the second spraying, the ryegrass was transferred to an illumination incubator at 45° C. for a high temperature stress treatment for 12 h. The plants were taken out and transferred to the greenhouse at 25° C. for recovery for 7 d. The damage conditions of the plants were observed and counted, and the heat damage grades were calculated. The heat damage grading standard was shown in table 8 and a calculation formula of the heat damage index was as follows.

Another assay has as its system "Sikang 1" cotton. Description: Cotton under salt stress (100 mM NaCl). The conditions noted are these: 100 mM NaCl three days; for Mortality (%): cotton plants. The method, then:
An experimental material was “Sikang 1” cotton which was hydroponic in a 500-mL plastic cup, and a ½ Hoagland nutrient solution was replaced every other two days. When the cotton seedling grew until the second true leaves were completely unfolded, a 2-amino-3-indolyl butyric acid solution was sprayed on the leaf surfaces. Concentrations at 0 nm, 1 nm, 10 nm, 100 nm and 1,000 nm were set in the experiment. Meanwhile, 0.02% Tween 20 was added as a surfactant. The solution was sprayed every 24 h for 2 times and NaCl was added into a ½ Hoagland nutrient solution the next day after the treatment to make the final concentration of 100 mM to perform a salt stress treatment. Each treatment was performed in three replicates. A rehydration treatment was performed after three days of the salt stress. The salt damage symptoms of the cotton were observed and a salt damage index was calculated by using a calculation formula as follows.

Where [2] appears, read: treatment concentration 1,000 nm.
[3] abbreviates: treatment concentration 10,000 nm.

The structures appear in SMILES notation. Several values for one entry are separate records, joined by “and”; a condition that tells them apart may be missing. Equal entries are not always repeated.

With `CC(c1c[nH]c2ccccc12)C(N)C(=O)O` (stereo not drawn), the entries for the “Disease index reduced by” value in assay [1] (100 nm), in assay [1] (1,000 nm) and in assay [1] (10,000 nm) were 51.25%, 53.92% and 64.42%, respectively. Also, the “Number of the bacteria in each milligram of the leaves reduced by” value is 76.75% in assay [1] (100 nm); 80.97% in assay [1] (1,000 nm); 85.039% and 85.03% in assay [1] (10,000 nm). For the same molecule, the “CFU (mg), number of bacteria in each milligram of the leaves” value was 7.44 × 10^5 CFU (mg) in assay [1] (treatment concentration 100 nm), 6.09 × 10^5 CFU (mg) in assay [1] (setting [2]) and 4.79×10^5 CFU (mg) in assay [1] (setting [3]). Further, the Disease index in assay [1] (treatment concentration 100 nm) is reported as 40.53 ± 1.95b; in assay [1] (setting [2]) it was 38.31 ± 1.80b. For the same molecule, the Heat damage index in the assay with ryegrass (1 nm) was 61; in the assay with ryegrass (10 nm) it was 57; in the assay with ryegrass (100 nm) it was 43; in the assay on ryegrass (1,000 nm), 25. Moreover, the “Heat damage index of the ryegrass decreased” value in the assay with ryegrass (1,000 nm) worked out at 65%. The “Salt damage index (%)” value in the assay on "Sikang 1" cotton (1 nm) was 63%; with "Sikang 1" cotton (10 nm), 57%; in the assay with "Sikang 1" cotton (100 nm) it was 53%; with "Sikang 1" cotton (1,000 nm) it was 44%. Further, the “Mortality (%)” value in the assay on "Sikang 1" cotton (1 nm) is given as 45%; with "Sikang 1" cotton (10 nm) it was 43%; in the assay with "Sikang 1" cotton (100 nm), 33%; in the assay with "Sikang 1" cotton (1,000 nm), 27%.
Turning to `CC1CCNC1C(=O)O` (stereo not drawn) [3-methylpyrrolidine-2-carboxylic acid], the results for the “Disease index reduced by” value in assay [1] (100 nm), in assay [1] (1,000 nm) and in assay [1] (10,000 nm) were 41.13%, 52.47% and 72.69%, respectively. For the same molecule, the “Number of the bacteria in each milligram of the leaves reduced by” value in assay [1] (100 nm) was 70.78%; in assay [1] (1,000 nm), 80.90%; in assay [1] (10,000 nm), 94.92% and 94.90%. Besides, the “CFU (mg), number of bacteria in each milligram of the leaves” value in assay [1] (treatment concentration 100 nm) is recorded as 9.41 × 10^5 CFU (mg); in assay [1] (setting [2]), 6.15 × 10^5 CFU (mg); in assay [1] (setting [3]) it was 1.64×10^5 CFU (mg). Besides, the Disease index in assay [1] (treatment concentration 100 nm) stood at 50.14 ± 1.54b; in assay [1] (setting [2]), 40.48 ± 0.17c. Besides, the Heat damage index in the assay on ryegrass (1 nm) was found to be 57; in the assay on ryegrass (10 nm), 50; with ryegrass (100 nm) it was 38; in the assay with ryegrass (1,000 nm), 20. Further, in the assay on ryegrass (1,000 nm), the “Heat damage index of the ryegrass decreased” value amounted to 68%. Besides, the “Salt damage index (%)” value is listed as 67% in the assay with "Sikang 1" cotton (1 nm), 54% in the assay with "Sikang 1" cotton (10 nm), 49% with "Sikang 1" cotton (100 nm) and 39% in the assay with "Sikang 1" cotton (1,000 nm). Also, the “Mortality (%)” value with "Sikang 1" cotton (1 nm) stood at 47%; in the assay on "Sikang 1" cotton (10 nm) it was 42%; in the assay on "Sikang 1" cotton (100 nm), 28%; in the assay with "Sikang 1" cotton (1,000 nm), 24%.

The record behind these values is patent US20250204528A1, “USE OF 2-AMINO-3-INDOLYL BUTYRIC ACID OR 3-METHYLPYRROLIDINE-2-CARBOXYLIC ACID AS PLANT IMMUNITY ELICITOR” (NANJING TIANNONG BIOTECHNOLOGY CO., LTD, priority 2021, published 2025).
